3 compounds from ChEMBL document CHEMBL1201862, “PubChem BioAssay data set” (2004) can be followed below.

For assay [1], the target named is T1, Fatty acid synthase (Homo sapiens, UniProt P49327). The assay can be described thus: FAS thioesterase domain inhibitors, dose response, biochemical, endpoint fluorescence intensity, uHTS hits (AID 624327).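 Note: fluorescence from hydrolysis of an O-methyl fluorescein acyl ester substrate by the enzyme.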 The class given is functional.
In assay [2] the target is T2, Methionyl-tRNA synthetase, putative (Trypanosoma brucei brucei, UniProt Q38C91). The class given is functional, Trypanosoma brucei brucei strain 927/4 GUTat10.1.
T2 sequence (Q38C91 whole entry, the tested form may be a part): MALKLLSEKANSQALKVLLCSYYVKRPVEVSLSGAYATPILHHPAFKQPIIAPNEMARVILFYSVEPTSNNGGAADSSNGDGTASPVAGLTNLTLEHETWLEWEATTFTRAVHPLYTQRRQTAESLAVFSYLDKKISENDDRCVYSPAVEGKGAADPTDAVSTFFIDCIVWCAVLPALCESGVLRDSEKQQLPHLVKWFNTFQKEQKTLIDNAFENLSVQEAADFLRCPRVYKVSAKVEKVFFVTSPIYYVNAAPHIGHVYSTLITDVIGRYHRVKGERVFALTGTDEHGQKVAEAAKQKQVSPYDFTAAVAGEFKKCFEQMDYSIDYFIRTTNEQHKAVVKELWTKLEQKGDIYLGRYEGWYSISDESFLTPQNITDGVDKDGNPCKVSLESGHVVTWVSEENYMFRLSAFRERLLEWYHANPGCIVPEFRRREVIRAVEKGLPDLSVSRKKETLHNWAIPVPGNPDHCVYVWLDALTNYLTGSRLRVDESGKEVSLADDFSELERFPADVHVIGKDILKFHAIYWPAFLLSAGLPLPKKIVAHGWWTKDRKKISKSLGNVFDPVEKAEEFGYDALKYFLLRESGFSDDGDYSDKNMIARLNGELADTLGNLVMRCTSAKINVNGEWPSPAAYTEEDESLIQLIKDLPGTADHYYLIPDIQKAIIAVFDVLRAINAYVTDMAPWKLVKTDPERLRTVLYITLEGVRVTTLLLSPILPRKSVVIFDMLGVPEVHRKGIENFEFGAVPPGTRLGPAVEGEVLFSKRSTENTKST
Assay [3] has as its target T1, Fatty acid synthase. The assay can be described thus: FAS thioesterase domain inhibitors, dose response, biochemical, kinetic fluorescence intensity (AID 624326).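 Note: rate of fluorescence rise from hydrolysis of a fluorogenic O-methyl fluorescein ester substrate.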 It counts as functional.
Assay [4] is described as follows: Counterscreen for inhibitors of Trypanosoma brucei methionyl tRNA synthetase (MetRS): Luminescence-based cell-based high throughput dose response assay to identify compounds that are cytotoxic to Jurkat human T lymphocyte cells. It counts as functional. (Counterscreens check selectivity or assay interference.)
Assay [5] concerns the target T2, Methionyl-tRNA synthetase, putative. The class given is functional, Trypanosoma brucei brucei strain 927/4 GUTat10.1. The source holds these as a separate data set.
The target of assay [6] is Dual specificity protein phosphatase 3 (Homo sapiens, UniProt P51452). Put plainly: VHR phosphatase inhibition, dose response, selectivity assay for STEP inhibitor project, biochemical (AID 602374). The class given is functional. Conditions: read-out: IC50_Mean.
Sequence of Dual specificity protein phosphatase 3 (P51452 whole entry): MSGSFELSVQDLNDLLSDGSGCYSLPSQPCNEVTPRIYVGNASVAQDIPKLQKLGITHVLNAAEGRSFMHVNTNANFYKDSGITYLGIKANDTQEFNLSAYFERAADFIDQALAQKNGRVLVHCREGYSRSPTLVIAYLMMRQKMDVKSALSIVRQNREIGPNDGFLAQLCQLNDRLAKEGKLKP
The target in the next assay is Prothrombin (Bos taurus, UniProt P00735). Put plainly: thrombin inhibition, dose response, biochemical, fluorescence polarization, uHTS hits (AID 602369). It counts as functional. On the technique in general: In fluorescence polarisation assays a small probe gives low polarisation when free and higher when bound to something large.
The target in assay [7] is Tyrosine-protein phosphatase non-receptor type 11 (Homo sapiens, UniProt Q06124). Put plainly: SHP2 phosphatase inhibition, dose response, selectivity assay for STEP inhibitor project, biochemical (AID 602367). The class given is functional. The note with it: read-out: IC50_Mean.
Sequence of Tyrosine-protein phosphatase non-receptor type 11 (Q06124 whole entry): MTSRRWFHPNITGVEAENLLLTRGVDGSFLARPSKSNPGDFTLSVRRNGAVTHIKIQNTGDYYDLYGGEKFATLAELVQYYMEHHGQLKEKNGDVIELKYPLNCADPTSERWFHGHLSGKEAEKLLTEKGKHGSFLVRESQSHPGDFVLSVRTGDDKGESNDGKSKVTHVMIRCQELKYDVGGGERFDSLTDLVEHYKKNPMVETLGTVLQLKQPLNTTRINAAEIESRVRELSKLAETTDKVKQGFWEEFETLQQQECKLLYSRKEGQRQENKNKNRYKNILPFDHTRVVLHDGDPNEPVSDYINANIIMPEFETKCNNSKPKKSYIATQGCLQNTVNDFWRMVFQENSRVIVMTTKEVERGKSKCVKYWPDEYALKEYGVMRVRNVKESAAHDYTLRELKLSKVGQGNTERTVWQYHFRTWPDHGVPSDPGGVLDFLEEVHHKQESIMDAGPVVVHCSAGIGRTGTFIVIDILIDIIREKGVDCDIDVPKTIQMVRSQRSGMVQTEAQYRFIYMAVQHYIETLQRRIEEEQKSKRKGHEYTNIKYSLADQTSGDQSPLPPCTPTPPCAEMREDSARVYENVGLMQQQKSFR
The target in assay [8] is Tyrosine-protein phosphatase non-receptor type 5 (Homo sapiens, UniProt P54829). Put plainly: STEP phosphatase inhibitors, confirmation, biochemical, fluorescence intensity, uHTS hits (AID 602372). It counts as functional. The note with it: read-out: IC50_Mean.
For assay [9], the target named is 72 kDa type IV collagenase (Homo sapiens, UniProt P08253). The assay can be described thus: Dose Response validation of uHTS RPN11 inhibitor hits using a MMP-2 Fluorescence assay. The class given is functional.
Sequence of 72 kDa type IV collagenase (P08253 whole entry): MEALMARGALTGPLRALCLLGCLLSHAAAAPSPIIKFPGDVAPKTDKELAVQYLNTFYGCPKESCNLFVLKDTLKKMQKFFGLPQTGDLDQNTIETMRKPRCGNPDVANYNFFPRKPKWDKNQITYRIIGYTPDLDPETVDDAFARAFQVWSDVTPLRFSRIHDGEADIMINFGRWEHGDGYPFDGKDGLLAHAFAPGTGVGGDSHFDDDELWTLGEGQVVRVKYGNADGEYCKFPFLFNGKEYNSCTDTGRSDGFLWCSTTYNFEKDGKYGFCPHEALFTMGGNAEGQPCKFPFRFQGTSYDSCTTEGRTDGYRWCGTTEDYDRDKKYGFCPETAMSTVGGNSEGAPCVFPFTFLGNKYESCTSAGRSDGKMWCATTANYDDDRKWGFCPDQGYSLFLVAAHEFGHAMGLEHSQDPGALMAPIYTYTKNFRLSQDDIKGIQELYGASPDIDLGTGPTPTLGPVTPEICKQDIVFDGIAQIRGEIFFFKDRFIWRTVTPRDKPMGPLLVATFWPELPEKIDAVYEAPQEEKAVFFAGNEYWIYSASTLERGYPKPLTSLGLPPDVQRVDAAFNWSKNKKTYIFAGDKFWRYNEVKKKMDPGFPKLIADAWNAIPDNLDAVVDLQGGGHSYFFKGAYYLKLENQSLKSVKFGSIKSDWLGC
Assay [10] is described as follows: HEK293T cytotoxicity, dose response, cytotoxicity control for miR-122 modulator project, cell-based, activator set, cherry-pick (AID 720690).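 Note: HEK293T human cells scored for general mammalian cytotoxicity.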 The class given is functional.
For assay [11], the target named is 26S proteasome non-ATPase regulatory subunit 14 (Homo sapiens, UniProt O00487). The assay can be described thus: inhibition of proteasome subunit RPN11 – biochemical, fluorescence polarization, uHTS hits, confirmation (AID 602368). The class given is functional.
Sequence of 26S proteasome non-ATPase regulatory subunit 14 (O00487 whole entry): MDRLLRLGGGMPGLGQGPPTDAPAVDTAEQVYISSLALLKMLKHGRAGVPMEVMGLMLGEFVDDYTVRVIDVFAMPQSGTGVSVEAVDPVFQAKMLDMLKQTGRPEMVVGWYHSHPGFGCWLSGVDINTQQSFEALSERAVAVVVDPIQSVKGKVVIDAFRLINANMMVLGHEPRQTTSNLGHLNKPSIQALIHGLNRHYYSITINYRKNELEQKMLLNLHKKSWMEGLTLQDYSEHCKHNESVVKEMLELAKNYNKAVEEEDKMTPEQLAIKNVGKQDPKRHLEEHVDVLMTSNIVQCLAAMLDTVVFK
For assay [12], the target named is T3, Tyrosine-protein phosphatase non-receptor type 22 (Homo sapiens, UniProt Q9Y2R2).
T3 sequence (Q9Y2R2 whole entry): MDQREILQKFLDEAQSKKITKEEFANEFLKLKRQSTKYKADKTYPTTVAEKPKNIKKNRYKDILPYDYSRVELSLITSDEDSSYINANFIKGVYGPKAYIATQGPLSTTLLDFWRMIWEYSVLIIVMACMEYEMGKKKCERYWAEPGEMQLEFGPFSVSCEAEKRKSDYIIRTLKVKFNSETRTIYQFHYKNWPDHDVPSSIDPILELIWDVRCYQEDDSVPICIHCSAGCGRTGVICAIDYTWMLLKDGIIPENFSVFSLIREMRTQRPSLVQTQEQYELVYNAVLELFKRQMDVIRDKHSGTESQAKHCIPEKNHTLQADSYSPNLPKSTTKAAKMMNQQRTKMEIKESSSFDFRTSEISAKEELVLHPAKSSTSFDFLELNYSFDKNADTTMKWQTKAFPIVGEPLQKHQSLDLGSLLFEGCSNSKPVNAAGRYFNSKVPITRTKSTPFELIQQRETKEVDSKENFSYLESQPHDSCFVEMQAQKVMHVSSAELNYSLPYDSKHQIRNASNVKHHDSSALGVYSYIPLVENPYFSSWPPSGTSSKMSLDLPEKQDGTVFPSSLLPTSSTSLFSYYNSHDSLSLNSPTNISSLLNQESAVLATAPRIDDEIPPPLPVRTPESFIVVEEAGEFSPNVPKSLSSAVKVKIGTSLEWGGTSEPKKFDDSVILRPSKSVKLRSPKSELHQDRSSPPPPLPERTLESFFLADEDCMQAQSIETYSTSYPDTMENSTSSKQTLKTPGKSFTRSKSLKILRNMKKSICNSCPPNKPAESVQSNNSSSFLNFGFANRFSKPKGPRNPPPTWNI
The assay can be described thus: PTPN22 phosphatase inhibition, dose response, selectivity assay for STEP inhibitor project, biochemical (AID 624241). It counts as functional.

A short description of assay [13]: HEK293T cytotoxicity, dose response, cytotoxicity control for miR-122 modulator project, cell-based, inhibitor set, cherry-pick, set 2 (AID 720697). The class given is functional.
A short description of assay [14]: NIH/3T3 fibroblast cytotoxicity, dose response, cytotoxicity control for T. cruzi growth inhibitor project, cell-based, cherry-pick samples, set 2 (AID 651817). It counts as functional. The note with it: NIH3T3.

Usually AC50 stands for the midpoint of the concentration-response curve, whichever way the signal moves.

Activity calls are given as the source filed them.

T1 sequence (P49327 whole entry, the tested form may be a part): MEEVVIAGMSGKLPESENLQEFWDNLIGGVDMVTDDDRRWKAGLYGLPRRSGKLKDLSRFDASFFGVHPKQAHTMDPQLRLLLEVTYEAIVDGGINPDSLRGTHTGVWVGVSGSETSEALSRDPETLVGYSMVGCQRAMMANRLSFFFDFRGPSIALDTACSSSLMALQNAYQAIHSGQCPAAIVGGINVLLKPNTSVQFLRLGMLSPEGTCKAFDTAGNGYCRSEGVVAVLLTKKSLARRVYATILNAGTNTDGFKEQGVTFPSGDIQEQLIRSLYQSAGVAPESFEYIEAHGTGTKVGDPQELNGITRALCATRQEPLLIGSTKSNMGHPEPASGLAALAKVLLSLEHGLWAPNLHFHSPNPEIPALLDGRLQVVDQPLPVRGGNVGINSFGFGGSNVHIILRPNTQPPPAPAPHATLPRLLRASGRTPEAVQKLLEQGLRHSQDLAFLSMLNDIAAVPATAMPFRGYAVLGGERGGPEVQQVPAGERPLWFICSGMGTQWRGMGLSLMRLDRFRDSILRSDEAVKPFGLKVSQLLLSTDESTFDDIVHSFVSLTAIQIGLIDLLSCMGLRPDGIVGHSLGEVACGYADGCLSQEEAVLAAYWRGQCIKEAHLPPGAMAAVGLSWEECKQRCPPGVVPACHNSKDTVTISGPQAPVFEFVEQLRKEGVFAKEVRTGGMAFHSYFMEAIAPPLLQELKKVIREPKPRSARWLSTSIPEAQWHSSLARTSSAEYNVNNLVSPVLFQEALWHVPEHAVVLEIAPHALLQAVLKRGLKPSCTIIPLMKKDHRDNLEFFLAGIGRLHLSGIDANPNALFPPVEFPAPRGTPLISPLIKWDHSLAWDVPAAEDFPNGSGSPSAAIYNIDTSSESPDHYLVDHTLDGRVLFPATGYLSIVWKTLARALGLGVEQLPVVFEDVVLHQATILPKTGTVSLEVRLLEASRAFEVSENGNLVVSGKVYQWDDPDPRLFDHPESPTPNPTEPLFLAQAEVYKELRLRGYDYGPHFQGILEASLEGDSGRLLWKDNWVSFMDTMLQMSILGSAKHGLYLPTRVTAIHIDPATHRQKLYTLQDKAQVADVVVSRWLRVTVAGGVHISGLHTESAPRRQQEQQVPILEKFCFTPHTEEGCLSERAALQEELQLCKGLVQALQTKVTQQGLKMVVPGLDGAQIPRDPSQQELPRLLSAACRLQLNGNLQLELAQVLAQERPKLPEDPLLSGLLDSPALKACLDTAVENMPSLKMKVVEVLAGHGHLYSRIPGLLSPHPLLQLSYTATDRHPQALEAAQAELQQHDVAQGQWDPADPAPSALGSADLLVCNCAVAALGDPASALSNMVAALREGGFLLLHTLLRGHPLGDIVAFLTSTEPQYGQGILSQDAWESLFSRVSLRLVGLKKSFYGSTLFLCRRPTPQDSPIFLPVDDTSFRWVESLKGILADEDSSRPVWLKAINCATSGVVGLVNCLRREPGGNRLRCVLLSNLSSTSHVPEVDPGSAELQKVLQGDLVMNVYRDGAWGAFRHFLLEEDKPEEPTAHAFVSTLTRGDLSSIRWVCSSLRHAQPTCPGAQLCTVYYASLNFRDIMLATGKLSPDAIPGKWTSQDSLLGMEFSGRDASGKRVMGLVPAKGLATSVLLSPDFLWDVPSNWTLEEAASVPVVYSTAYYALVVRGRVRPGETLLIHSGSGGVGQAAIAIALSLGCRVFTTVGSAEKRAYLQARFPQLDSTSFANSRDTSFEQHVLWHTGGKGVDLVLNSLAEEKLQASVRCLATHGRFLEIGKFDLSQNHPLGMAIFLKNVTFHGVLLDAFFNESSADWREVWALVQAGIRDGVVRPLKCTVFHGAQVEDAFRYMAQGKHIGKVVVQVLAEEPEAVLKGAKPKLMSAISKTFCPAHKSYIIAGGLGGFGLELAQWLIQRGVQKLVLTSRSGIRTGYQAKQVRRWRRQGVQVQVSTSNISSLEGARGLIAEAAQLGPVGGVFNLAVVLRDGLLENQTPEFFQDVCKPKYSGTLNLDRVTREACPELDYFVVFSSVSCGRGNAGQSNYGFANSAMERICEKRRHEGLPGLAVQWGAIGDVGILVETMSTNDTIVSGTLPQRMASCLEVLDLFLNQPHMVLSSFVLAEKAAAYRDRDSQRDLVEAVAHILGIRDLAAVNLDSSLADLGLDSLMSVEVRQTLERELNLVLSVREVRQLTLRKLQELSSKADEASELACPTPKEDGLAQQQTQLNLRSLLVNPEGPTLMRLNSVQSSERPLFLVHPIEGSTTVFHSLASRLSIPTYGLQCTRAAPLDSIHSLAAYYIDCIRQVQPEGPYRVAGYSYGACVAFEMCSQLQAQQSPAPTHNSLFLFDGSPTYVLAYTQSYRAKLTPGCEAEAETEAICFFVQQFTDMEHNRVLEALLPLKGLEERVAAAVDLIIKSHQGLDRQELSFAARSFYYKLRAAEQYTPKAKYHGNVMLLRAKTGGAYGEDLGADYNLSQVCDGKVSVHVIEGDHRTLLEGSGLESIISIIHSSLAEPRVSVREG

Take `Cc1ccc(NC(=O)CN(C)C(=O)c2ccc(Cl)c([N+](=O)[O-])c2)cc1`: the IC50 at Fatty acid synthase [1] is 7.6 µM (active); in assay [2], 8.63 µM (active); on Fatty acid synthase [3] it was 6.26 µM (active); in assay [4] it was 56.7 µM (inactive); in [5], 17.9 µM (inactive).
Regarding `COc1cc(Cl)cc(/C=N\NC(=O)c2ccc3c(c2)OCO3)c1O`, the IC50 in assay [6] was 5.02 µM (active); at Prothrombin, 65.6 µM (active); in [7], 4.16 µM (active); in [8], 9.73 µM (active); in assay [9], > 100 µM (inactive); in [11] it was 21.5 µM (active). In addition, the IC50 in [12] was > 100 µM (inactive). The AC50 in assay [10] was 16.6 µM (active); in assay [13] it was 5.99 µM (active).
Regarding `C[C@@H]1CN([C@@H](C)CO)C(=O)c2cccc(NC(=O)Nc3ccc(C(F)(F)F)cc3)c2O[C@@H]1CN(C)Cc1ccc(Cl)c(Cl)c1`, in assay [14], the AC50 was 14.2 µM (active).
